# Read-outs that look alike come from different tables or passages of the source.
# Target: T1, Rat 5HT7 Receptors (Rattus norvegicus, UniProt P32305)
# T1 construct: expressed in transfected cells; host or cells: HEK-293
# Assay: 3H-5-Carboxamidotryptamine (3H-5-CT) binding to rat 5HT7 receptors expressed in HEK-293 cells
# Method: The affinities of the active compounds for 5HT7 receptors can be determined using standard radioligand binding assays as described in the literature. The 5HT7 affinity can be measured using the following procedure.
# ^3H-5-Carboxamidotryptamine (^3H-5-CT) Binding to Rat 5HT7 Receptors Expressed in HEK-293 Cells: […]
# Nonspecific binding is determined using 1 uM 5-HT creatinine sulfate. […] Radioactivity is quantified by liquid scintillation counting using a BetaPlate counter (LKB).
# The percent inhibition of specific binding is calculated for each concentration of test compound. […] Ki values are calculated according to Cheng & Prusoff: Ki=IC50/(1+(L/Kd)), where L is the concentration of the radioligand used in the experiment and the Kd value is the dissociation constant for the radioligand determined in separate saturation experiments. […]
# T1 sequence (P32305 whole entry): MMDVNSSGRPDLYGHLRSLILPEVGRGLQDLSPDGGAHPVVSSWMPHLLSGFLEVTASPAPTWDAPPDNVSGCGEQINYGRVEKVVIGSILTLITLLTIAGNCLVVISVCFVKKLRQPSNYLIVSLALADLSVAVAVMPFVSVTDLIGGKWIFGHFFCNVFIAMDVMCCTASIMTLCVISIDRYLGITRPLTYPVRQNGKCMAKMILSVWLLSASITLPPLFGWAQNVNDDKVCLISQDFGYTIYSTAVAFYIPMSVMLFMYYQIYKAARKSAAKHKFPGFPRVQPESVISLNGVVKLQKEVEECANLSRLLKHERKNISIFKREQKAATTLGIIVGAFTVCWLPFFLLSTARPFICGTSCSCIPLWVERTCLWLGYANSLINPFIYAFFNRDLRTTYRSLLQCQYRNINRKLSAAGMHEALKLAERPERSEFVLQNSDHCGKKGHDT
SMILES,Ki [nM],"Ki (3H-5-CT 0.4 nM radioligand, HEK-293 cell membranes expressing rat 5HT7, Cheng & Prusoff, read-out: Ki) [nM]"
"Cc1cnc2c(C3CCCNC3)cccc2c1 (racemic) [Example 8, 3-Methyl-8-Piperidin-3-yl-Quinoline]",~7.6,
"CCc1cnc2cc(C3CCCNC3)ccc2c1 (racemic) [Example 10, 3-Ethyl-7-Piperidin-3-yl-Quinoline]",,~500

# Reference: patent US6894062B1, “Quinoline derivatives” (Pfizer Inc., priority 2002, dated 2005)
